Kd, % control and IC50 data for four molecules are collected here from ChEMBL document CHEMBL5252509, “In depth analysis of kinase cross screening data to identify chemical starting points for inhibition of the Nek family of kinases” (Medchemcomm, 2018).

By Kd is commonly meant the free concentration of one partner at which half of the binding sites on the other are occupied at equilibrium, for simple one-to-one binding. Usually IC50 stands for the midpoint of a concentration-inhibition curve. Read a high IC50 as weaker potency in that assay.

Assay [1] has as its target Serine/threonine-protein kinase Nek2 (Homo sapiens, UniProt P51955). Put plainly: Inhibition of NEK2 (unknown origin) assessed as dissociation constant.
In assay [2] the target is T1, Serine/threonine-protein kinase Nek10 (Homo sapiens) (UniProt Q6ZWH5).
T1 sequence (whole entry): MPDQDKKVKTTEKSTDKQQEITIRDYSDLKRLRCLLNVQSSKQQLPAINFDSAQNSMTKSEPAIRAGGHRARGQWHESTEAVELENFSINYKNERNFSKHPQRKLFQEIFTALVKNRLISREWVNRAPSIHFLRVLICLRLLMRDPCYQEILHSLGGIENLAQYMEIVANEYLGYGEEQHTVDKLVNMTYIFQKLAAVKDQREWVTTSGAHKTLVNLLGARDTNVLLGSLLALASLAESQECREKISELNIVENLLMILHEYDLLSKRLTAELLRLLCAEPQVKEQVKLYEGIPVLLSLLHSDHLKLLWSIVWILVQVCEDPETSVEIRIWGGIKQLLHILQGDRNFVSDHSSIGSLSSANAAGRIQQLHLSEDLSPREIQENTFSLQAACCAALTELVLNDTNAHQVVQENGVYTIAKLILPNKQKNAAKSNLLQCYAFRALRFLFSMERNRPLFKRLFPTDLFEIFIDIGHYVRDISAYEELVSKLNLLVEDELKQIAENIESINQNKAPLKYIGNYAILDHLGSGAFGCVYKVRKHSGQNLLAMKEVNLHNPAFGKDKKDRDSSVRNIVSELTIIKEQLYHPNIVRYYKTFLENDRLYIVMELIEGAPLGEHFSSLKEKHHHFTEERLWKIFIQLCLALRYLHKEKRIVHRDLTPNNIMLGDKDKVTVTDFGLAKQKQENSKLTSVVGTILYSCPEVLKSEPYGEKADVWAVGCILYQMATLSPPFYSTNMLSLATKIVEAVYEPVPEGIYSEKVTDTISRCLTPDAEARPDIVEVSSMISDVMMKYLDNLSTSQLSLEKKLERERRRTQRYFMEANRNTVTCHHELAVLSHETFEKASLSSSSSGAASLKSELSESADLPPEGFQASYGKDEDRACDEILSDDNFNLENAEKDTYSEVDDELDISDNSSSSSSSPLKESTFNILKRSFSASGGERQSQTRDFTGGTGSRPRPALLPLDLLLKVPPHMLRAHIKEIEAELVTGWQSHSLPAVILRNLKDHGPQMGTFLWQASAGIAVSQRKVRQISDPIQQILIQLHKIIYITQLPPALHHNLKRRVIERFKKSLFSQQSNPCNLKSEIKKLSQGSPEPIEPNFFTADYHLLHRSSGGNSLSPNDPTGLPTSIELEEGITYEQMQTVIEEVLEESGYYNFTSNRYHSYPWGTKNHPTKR
The assay can be described thus: Inhibition of NEK10 (unknown origin) at 10 uM relative to control.

Assay [3] has as its target Mitogen-activated protein kinase 8 (Homo sapiens, UniProt P45983). Put plainly: Inhibition of JNK1 (unknown origin).
In assay [4] the target is Serine/threonine-protein kinase Nek5 (Homo sapiens, UniProt Q6P3R8). The assay can be described thus: Inhibition of NEK5 (unknown origin) assessed as dissociation constant.
Sequence of Serine/threonine-protein kinase Nek5 (Q6P3R8 whole entry): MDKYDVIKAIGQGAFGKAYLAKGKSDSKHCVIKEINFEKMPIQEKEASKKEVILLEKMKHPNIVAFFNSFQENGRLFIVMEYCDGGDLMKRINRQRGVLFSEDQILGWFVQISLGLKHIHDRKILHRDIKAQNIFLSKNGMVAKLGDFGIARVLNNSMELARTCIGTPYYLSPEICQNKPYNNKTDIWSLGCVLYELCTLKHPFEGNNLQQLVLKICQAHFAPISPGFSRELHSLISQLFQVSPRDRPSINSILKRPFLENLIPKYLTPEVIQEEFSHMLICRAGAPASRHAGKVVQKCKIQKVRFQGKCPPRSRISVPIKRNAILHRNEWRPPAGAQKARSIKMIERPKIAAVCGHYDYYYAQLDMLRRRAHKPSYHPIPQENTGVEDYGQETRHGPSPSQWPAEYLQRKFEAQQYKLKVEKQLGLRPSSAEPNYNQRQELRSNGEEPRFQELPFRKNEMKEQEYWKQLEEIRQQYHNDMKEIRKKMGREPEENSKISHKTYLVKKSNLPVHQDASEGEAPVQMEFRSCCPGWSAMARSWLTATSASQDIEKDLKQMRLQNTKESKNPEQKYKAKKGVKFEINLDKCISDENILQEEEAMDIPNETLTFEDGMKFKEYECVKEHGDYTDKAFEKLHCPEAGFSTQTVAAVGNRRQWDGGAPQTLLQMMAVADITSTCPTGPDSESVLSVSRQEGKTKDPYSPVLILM

Sequence of Serine/threonine-protein kinase Nek2 (P51955 whole entry): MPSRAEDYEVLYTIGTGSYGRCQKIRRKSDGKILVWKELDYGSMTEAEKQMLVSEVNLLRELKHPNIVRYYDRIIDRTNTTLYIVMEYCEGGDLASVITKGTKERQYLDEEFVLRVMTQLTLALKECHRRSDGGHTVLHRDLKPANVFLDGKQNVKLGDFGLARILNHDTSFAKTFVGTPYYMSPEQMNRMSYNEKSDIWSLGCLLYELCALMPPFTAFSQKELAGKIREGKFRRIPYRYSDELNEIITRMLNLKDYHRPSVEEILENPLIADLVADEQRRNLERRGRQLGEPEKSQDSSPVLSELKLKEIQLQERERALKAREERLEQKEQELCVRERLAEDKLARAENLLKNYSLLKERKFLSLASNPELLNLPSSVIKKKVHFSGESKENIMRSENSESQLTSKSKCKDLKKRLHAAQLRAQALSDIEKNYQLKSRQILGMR
Sequence of Mitogen-activated protein kinase 8 (P45983 whole entry): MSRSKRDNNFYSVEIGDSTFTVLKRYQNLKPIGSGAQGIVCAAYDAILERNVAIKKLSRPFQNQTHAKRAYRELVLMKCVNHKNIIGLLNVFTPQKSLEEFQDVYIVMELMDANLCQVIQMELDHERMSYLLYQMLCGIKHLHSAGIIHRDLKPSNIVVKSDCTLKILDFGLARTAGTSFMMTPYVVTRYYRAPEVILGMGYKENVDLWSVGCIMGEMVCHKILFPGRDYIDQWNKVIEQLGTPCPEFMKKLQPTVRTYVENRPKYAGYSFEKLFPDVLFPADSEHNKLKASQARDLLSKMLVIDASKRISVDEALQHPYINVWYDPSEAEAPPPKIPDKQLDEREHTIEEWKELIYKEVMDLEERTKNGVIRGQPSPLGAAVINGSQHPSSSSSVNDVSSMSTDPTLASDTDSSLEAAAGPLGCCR

As for `COc1cccc(C2=C(Nc3ccc(Cl)c(C(=O)O)c3)C(=O)NC2=O)c1`, the Kd in assay [1] is 460 nM.

In the case of `O=C1NC(=O)/C(=C/c2ccc3nccc(-c4ccncc4)c3c2)S1`, the % control in assay [2] was 0%.

For `CN(C)C/C=C/C(=O)Nc1cccc(C(=O)Nc2ccc(Nc3nccc(-c4cccnc4)n3)cc2)c1`, in assay [3], half-maximal inhibition (IC50) required 41 nM.

As to `COc1cc(Nc2ncc3c(C)nc(-c4cc5ccccc5[nH]4)n3n2)cc(OC)c1OC`, in assay [4], the Kd came out at 730 nM.
